From PubChem BioAssay AID256 (DTP/NCI, 2004)
“And” between values parts separate entries of the source, which are not always exact repeats. Identical values can stand only once. Inconclusive results and toxic doses are left out. The calls were made as follows: active = survival T/C of 150% or more; inactive = T/C below 125% in these data.

System: CD2F1 mice, L1210 leukemia ip, survival T/C
Assay: NCI In Vivo Anticancer Drug Screen. Data for tumor model L1210 Leukemia (intraperitoneal) in CD2F1 (CDF1) mice
Conditions: endpoint: mean survival time, higher = longer survival
Procedure, shortened: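 Each value reflects a quotient of treated over vehicle control outcomes in mice with a transplanted tumor.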

[1] = dose: 100.0 mg/kg/injection, schedule: Q01DX009 (ip), vehicle: saline with Tween-80
[2] = dose: 100.0 mg/kg/injection, schedule: Q04DX003 (ip), vehicle: saline with Tween-80
[3] = dose: 200.0 mg/kg/injection, schedule: Q01DX009 (ip), vehicle: saline with Tween-80
[4] = dose: 400.0 mg/kg/injection, schedule: Q04DX003 (ip), vehicle: saline with Tween-80
[5] = dose: 50.0 mg/kg/injection, schedule: Q01DX009 (ip), vehicle: saline with Tween-80
[6] = dose: 6.25 mg/kg/injection, schedule: Q01DX009 (ip), vehicle: saline with Tween-80
[7] = dose: 12.5 mg/kg/injection, schedule: Q01DX009 (ip), vehicle: saline with Tween-80
[8] = dose: 25.0 mg/kg/injection, schedule: Q01DX009 (ip), vehicle: saline with Tween-80
[9] = dose: 200.0 mg/kg/injection, schedule: Q04DX003 (ip), vehicle: saline with Tween-80
[10] = dose: 100.0 mg/kg/injection, schedule: Q01DX001 (ip), vehicle: saline with Tween-80
[11] = dose: 200.0 mg/kg/injection, schedule: Q01DX001 (ip), vehicle: saline with Tween-80
[12] = dose: 400.0 mg/kg/injection, schedule: Q01DX001 (ip), vehicle: saline with Tween-80

Measured: T/C

CC(=O)[O][Pb]([O]C(C)=O)([c]1ccccc1)[c]1ccccc1
inactive: dose: 6.25 mg/kg/injection, schedule: Q01DX009 (ip), vehicle: Klucel (hydroxypropylcellulose) (HPC) 89 % of control and 97 % of control | dose: 12.5 mg/kg/injection, schedule: Q01DX009 (ip), vehicle: Klucel (hydroxypropylcellulose) (HPC) 87 % of control and 100 % of control | dose: 25.0 mg/kg/injection, schedule: Q01DX009 (ip), vehicle: Klucel (hydroxypropylcellulose) (HPC) 96 % of control | dose: 50.0 mg/kg/injection, schedule: Q01DX009 (ip), vehicle: Klucel (hydroxypropylcellulose) (HPC) 90 % of control and 95 % of control | dose: 100.0 mg/kg/injection, schedule: Q01DX009 (ip), vehicle: Klucel (hydroxypropylcellulose) (HPC) 92 % of control and 97 % of control | dose: 200.0 mg/kg/injection, schedule: Q01DX009 (ip), vehicle: Klucel (hydroxypropylcellulose) (HPC) 96 % of control

FC(F)=C(F)I
inactive: dose: 50.0 mg/kg/injection, schedule: Q01DX009 (ip), vehicle: other 95 % of control | dose: 100.0 mg/kg/injection, schedule: Q01DX009 (ip), vehicle: other 103 % of control | dose: 200.0 mg/kg/injection, schedule: Q01DX009 (ip), vehicle: other 103 % of control

CCCc1nc(/N=N/N(C)C)c(C(N)=O)[nH]1
inactive: dose: 75.0 mg/kg/injection, schedule: Q01DX001 (ip), vehicle: saline 114 % of control | dose: 150.0 mg/kg/injection, schedule: Q01DX001 (ip), vehicle: saline 120 % of control | dose: 300.0 mg/kg/injection, schedule: Q01DX001 (ip), vehicle: saline 122 % of control

NC(=S)NNc1ccccn1
inactive: dose: 25.0 mg/kg/injection, schedule: Q04DX002 (ip), vehicle: saline 106 % of control | dose: 50.0 mg/kg/injection, schedule: Q04DX002 (ip), vehicle: saline 108 % of control

Nc1nc(N)nc(NC(=O)COc2cc(Cl)c(Cl)cc2Cl)n1
inactive: [1] 100 % of control | [2] 92 % of control | [3] 105 % of control | dose: 400.0 mg/kg/injection, schedule: Q01DX009 (ip), vehicle: saline with Tween-80 103 % of control | [4] 88 % of control

CCOC(=O)CNC(=O)CCCCSc1ncnc2nc[nH]c12
inactive: dose: 20.0 mg/kg/injection, schedule: Q01DX001 (ip), vehicle: saline with Tween-80 95 % of control | dose: 20.0 mg/kg/injection, schedule: Q01DX009 (ip), vehicle: saline with Tween-80 98 % of control | dose: 20.0 mg/kg/injection, schedule: Q04DX003 (ip), vehicle: saline with Tween-80 102 % of control | dose: 40.0 mg/kg/injection, schedule: Q01DX001 (ip), vehicle: saline with Tween-80 97 % of control | dose: 40.0 mg/kg/injection, schedule: Q01DX009 (ip), vehicle: saline with Tween-80 94 % of control | dose: 40.0 mg/kg/injection, schedule: Q04DX003 (ip), vehicle: saline with Tween-80 95 % of control | dose: 80.0 mg/kg/injection, schedule: Q01DX009 (ip), vehicle: saline with Tween-80 96 % of control | dose: 80.0 mg/kg/injection, schedule: Q04DX003 (ip), vehicle: saline with Tween-80 95 % of control | dose: 160.0 mg/kg/injection, schedule: Q01DX001 (ip), vehicle: saline with Tween-80 90 % of control | dose: 160.0 mg/kg/injection, schedule: Q01DX009 (ip), vehicle: saline with Tween-80 93 % of control | dose: 160.0 mg/kg/injection, schedule: Q04DX003 (ip), vehicle: saline with Tween-80 95 % of control | dose: 320.0 mg/kg/injection, schedule: Q01DX001 (ip), vehicle: saline with Tween-80 95 % of control | dose: 320.0 mg/kg/injection, schedule: Q01DX009 (ip), vehicle: saline with Tween-80 96 % of control | dose: 320.0 mg/kg/injection, schedule: Q04DX003 (ip), vehicle: saline with Tween-80 93 % of control | dose: 640.0 mg/kg/injection, schedule: Q01DX001 (ip), vehicle: saline with Tween-80 97 % of control | dose: 640.0 mg/kg/injection, schedule: Q04DX003 (ip), vehicle: saline with Tween-80 100 % of control

O=C1C=CC(=O)N1c1ccccc1[N+](=O)[O-]
inactive: dose: 3.0 mg/kg/injection, schedule: Q01DX009 (ip), vehicle: saline with Tween-80 96 % of control | dose: 6.0 mg/kg/injection, schedule: Q01DX009 (ip), vehicle: saline with Tween-80 100 % of control | dose: 6.25 mg/kg/injection, schedule: Q04DX003 (ip), vehicle: saline with Tween-80 100 % of control | dose: 12.0 mg/kg/injection, schedule: Q01DX009 (ip), vehicle: saline with Tween-80 97 % of control | dose: 12.5 mg/kg/injection, schedule: Q04DX003 (ip), vehicle: saline with Tween-80 97 % of control

CCCCC#CC1CCCC1 (tested in a mixture with another compound)
inactive: [5] 103 % of control | [1] 100 % of control | [3] 100 % of control

NC(=O)C(C(N)=O)c1ccnc2ccccc12
inactive: dose: 6.25 mg/kg/injection, schedule: Q01DX001 (ip), vehicle: saline with Tween-80 102 % of control | [6] 97 % of control | dose: 12.5 mg/kg/injection, schedule: Q01DX001 (ip), vehicle: saline with Tween-80 103 % of control | [7] 93 % of control | dose: 25.0 mg/kg/injection, schedule: Q01DX001 (ip), vehicle: saline with Tween-80 96 % of control | [8] 93 % of control

Cc1csc2[nH]c(=O)[nH]c(=O)c12
inactive: [2] 96 % of control | [9] 94 % of control | [4] 87 % of control

N#CC(C#N)=Cc1cc2ccccc2c2ccccc12
inactive: [2] 109 % of control | [9] 97 % of control | [4] 101 % of control

CC(O)C1=CC(c2ccccc2)(c2ccccc2)c2ccccc21 (stereo unspecified)
inactive: [10] 95 % of control | [11] 91 % of control | [12] 88 % of control

CN(C)CCCN=Cc1cc(Cl)ccc1O.CN(C)CCCN=Cc1cc(Cl)ccc1O.[Ni+2]
inactive: [6] 93 % of control | [7] 93 % of control | [8] 100 % of control

COc1cc(CC#N)ccc1C
inactive: dose: 12.5 mg/kg/injection, schedule: Q04DX003 (ip), vehicle: acetone 97 % of control | dose: 25.0 mg/kg/injection, schedule: Q04DX003 (ip), vehicle: acetone 101 % of control | dose: 50.0 mg/kg/injection, schedule: Q04DX003 (ip), vehicle: acetone 102 % of control

Nc1cccc(Oc2ccc([N+](=O)[O-])cc2)c1
inactive: dose: 100.0 mg/kg/injection, schedule: Q01DX001 (ip), vehicle: Klucel (hydroxypropylcellulose) (HPC) 97 % of control | dose: 200.0 mg/kg/injection, schedule: Q01DX001 (ip), vehicle: Klucel (hydroxypropylcellulose) (HPC) 97 % of control

CCCCNCCN(CC)CC
inactive: [8] 94 % of control | dose: 25.0 mg/kg/injection, schedule: Q04DX003 (ip), vehicle: saline 94 % of control | [5] 96 % of control | dose: 50.0 mg/kg/injection, schedule: Q04DX003 (ip), vehicle: saline 89 % of control | [1] 93 % of control | dose: 100.0 mg/kg/injection, schedule: Q04DX003 (ip), vehicle: saline 97 % of control

COc1ccc(CCF)cc1
inactive: [10] 110 % of control | [11] 100 % of control | [12] 114 % of control

CC(=O)OCc1ccc(/C=N/Nc2ccc([N+](=O)[O-])cc2[N+](=O)[O-])cc1Br
inactive: dose: 200.0 mg/kg/injection, schedule: Q04DX003 (ip), vehicle: saline 108 % of control | dose: 400.0 mg/kg/injection, schedule: Q04DX003 (ip), vehicle: saline 100 % of control

CCCCCCC[CH2][Sn]1([CH2]CCCCCCC)[O]C2C(CO)OC(n3ccc4c(N)ncnc43)C2[O]1 (stereo unspecified)
inactive: dose: 0.78 mg/kg/injection, schedule: Q01DX005 (ip), vehicle: other 110 % of control | dose: 1.56 mg/kg/injection, schedule: Q01DX005 (ip), vehicle: other 107 % of control | dose: 3.13 mg/kg/injection, schedule: Q01DX005 (ip), vehicle: other 115 % of control | dose: 6.25 mg/kg/injection, schedule: Q01DX005 (ip), vehicle: other 102 % of control
